Results from patent US20130059787A1, “METHODS OF USING HUMAN PROTEIN KINASE C DELTA VIII AS A BIOMARKER” (UNITED STATES DEPARTMENT OF VETERAN AFFAIRS, priority 2010, published 2013).

Columns and labels:
PKCδI mRNA = assay: Quantitative real-time RT-PCR (SYBR Green) in primary human neuronal cells from hippocampus; assay type: cell-based; conditions: RA about 10 μM, about 24 h
Source text: (§1) FIG. 1 is a series of images illustrating the alternative splice site in human PKC δ. (a) schematic of alternative 5′ splice site selection in human PKCδ pre-mRNA exon 10 that results in the generation of PKCδI mRNA and PKCδVIII mRNA, which differ by about 93 bp in the V3 hinge region. RA promotes expression of PKCδVIII mRNA. SSI: 5′ splice site I; SSII: 5′ splice site II. (b) schematic of the primers specific for PKC δI and PKC δVIII used in real time RT-PCR such that they span the exon-exon boundaries. (c) primary human neuronal cells from hippocampus were treated with or without RA (about 10 μM) for about 24 h. […]
(§2) cDNA (about 2 μl) was amplified by real-time quantitative PCR using Syber (SYBR) Green with an ABI PRISM 7900 sequence detection system (PE Applied Biosystems, Foster City, Calif.) as described previously to quantify absolute levels of PKCδI and PKCδVIII mRNA in the samples (Jiang, K., Apostolatos, A. H., Ghansah, T., Watson, J. E., Vickers, T., Cooper, D. R., Epling-Burnette, P. K., and Patel, N. A. (2008) Biochemistry 47, 787-797). […]
(§3) sense primer 5′-[…]-3′(SEQ ID No: 6) and antisense primer 5′-[…]-3′ (SEQ ID No: 7). […] Absolute quantification of mRNA expression levels for PKCδI and PKCδVIII was calculated by normalizing the values to GAPDH. The results were analyzed with two-tailed Student's t test using PRISM4 statistical analysis software (GraphPad, San Diego, Calif.). […]

PKCδVIII mRNA = assay: as above; assay type: cell-based; conditions: RA about 10 μM, about 24 h
Source text: as §1, §2, §3

SR proteins = assay: Western blot of NT2 whole cell lysates with mAb104 antibody; assay type: cell-based, human; conditions: RA about 10 μM, about 24 h; NT2 cells
Method: FIG. 6 is a series of images illustrating the detection of SR proteins involved in RA-mediated PKXδVIII expression. NT2 cells were treated with RA (about 10 μM) for about 24 h or without RA (control), and Western blot analysis was performed on whole cell lysates using (a) mAb104 antibody that detects all SR proteins and (b) specific antibodies as indicated in the figure. Molecular masses are indicated (kDa).
Cell lysates (about 40 μg) were separated on 10% SDS-PAGE. […] In apoptotic cells, PARP is cleaved by caspase 3 into an 85 kDa fragment which is detected in addition to the 116 KDa fragment using anti-PARP antibody in western blot analysis. […] (Putt K S, Beilman G J, and H. P J., Direct quantitation of poly(ADP-ribose) polymerase (PARP) activity as a means to distinguish necrotic and apoptotic death in cell and tissue samples. Chembiochem, 2005. 6: p. 53-55)
(SR) proteins that bind to exonic or intronic splicing enhancers (ESE, ISE) on the pre-mRNA. […] NT2 cells were treated with or without RA (about 24 h), and whole cell lysates were analyzed by Western blot analysis using mAb104 antibody that simultaneously detects the phosphoepitopes on all SR proteins. […]

## CC1=C(/C=C/C(C)=C/C=C/C(C)=C/C(=O)O)C(C)(C)CCC1 [RA, all-trans-retinoic acid]
PKCδI mRNA
  absolute mRNA expression of PKCδI normalized to GAPDH: remain constant
PKCδVIII mRNA
  absolute mRNA expression of PKCδVIII normalized to GAPDH: increased
SR proteins
  SR protein at ~30 kDa expression (mAb104): increased in expression
